The record followed here is patent publication US20240025922A1, “TETRAHYDROPYRIDO[3,4-d]PYRIMIDINES AS HPK1 INHIBITORS” (Merck Patent GmbH, priority 2022, published 2024).

The term IC50 denotes the midpoint of a concentration-inhibition curve.

Assay [1] concerns the target full-length human HPK1 (MAP4K1) (Homo sapiens (Human), UniProt Q92918). In words: HPK1 Kinase Assay (Biochemical Assay), ADP-Glo. As to conditions: GST-HPK1 3.2 nM, 10 μM ATP, MBP substrate, read-out: HPK1 enzymatic IC50. The essentials:
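ADP-Glo luminescence after a 120-min kinase reaction gave percent inhibition and IC50. The enzyme was Sf21-expressed N-terminal GST full-length human HPK1 at 3.2 nM in HEPES pH 7.5 buffer with MgCl2, DTT, Brij-35 and BSA.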
(In ADP-Glo the light output rises with the ADP produced.)

Assay [2] deals with HPK1 (SLP76 phosphorylation at Ser376 in Jurkat and EL-4 cells) (Homo sapiens, UniProt Q92918). In kind it is cell-based. How it is done: Cellular Assay—Phospho-SLP-76 (Ser376).
Inhibition of HPK1 enzymatic activity in cells was determined by detection of SLP76 phosphorylation at Ser376 residue in lysate from Jurkat (human) and EL-4 (mouse) cells. Jurkat and EL-4 cells express both HPK1 and SLP76 naturally. All cells were cultured in RPMI 1640 media containing 10% heat inactivated fetal bovine serum (FBS) and 1×Penicillin-Streptomycin. In either Jurkat or El-4 assay, cells were pre-incubated with test compounds prior to T cell stimulation by respective αCD3/αCD28 Dynabeads™. For detection, plates were read on the Envision and percent inhibition and IC50 were determined by Smart fit in Genedata Analyzer.
For Jurkat cells: 35 μL cell suspension were dispensed at a density of 30,000 cells/well in 384-well plates containing HBSS (Gibco, 14025076)+0.1% BSA). 10-point logarithmic serial dilution of test compounds in DMSO were prepared by a Hamilton automated liquid handling robot and 35 nL was transferred into each well by an Echo liquid handler. After 60 min. pre-incubation, the cells were stimulated by adding 5 μL human T activator αCD3/αCD28 Dynabeads™ (Gibco, 11132D) at 1.2×107 beads/mL for 15 minutes at 37° C. Detection of Ser376 phosphorylation status was accomplished by first adding 10 μL of 5×AlphaLISA lysis buffer (Perkin Elmer, ALSU-PSLP-A500) to each well of the cell plate using a Multidrop Combi (5840300), followed by 20 minutes shaking. 10 μL cell lysate from each treatment were then transferred to a white 384-well plate (Corning 3572) and incubated with AlphaLISA acceptor beads for one hour (AlphaLISA SureFire Ultra p-SLP76(Ser376), Perkin Elmer, ALSU-PSLP-A500), and donor beads for additional 2 hours at room temperature in the dark.
For EL-4.IL2 assay, 50 μL cell suspension at 2×10^6 cells/mL in HBSS were first dispensed into 384-well plates and then 50 nL serial dilutions of test compounds were spotted to each well by an Echo liquid handler. After 60 min. incubation at 37° C., cells were stimulated by adding 5 μL mouse T cell activator αCD3/αCD28 Dynabeads™ (ThermFisher Scientific, 11452D) for 30 minutes at 37° C. After a brief spin and subsequent supernatant discarded, 12.5 μL of Cisbio lysis buffer were added to each well and plates were shaken for 30 min at 450 RPM. For detection, 4 μL prepared HTRF antibody mixture (Cisbio, 63ADK000U) in detection buffer were mixed with 16 μl of cell lysate and plates were incubated at room temperature for 19 hours prior to EnVision reading.

Where [3] appears, read: αCD3/αCD28 Dynabeads stimulated cells, pSLP76 (Ser376) detection; read-out: HPK1 pSLP76 IC50.

The structures appear in SMILES notation. Where two headings read alike, the source gives them in different places.

HPK1 (SLP76 phosphorylation at Ser376 in Jurkat and EL-4 cells), sequence (Q92918 whole entry, looked up): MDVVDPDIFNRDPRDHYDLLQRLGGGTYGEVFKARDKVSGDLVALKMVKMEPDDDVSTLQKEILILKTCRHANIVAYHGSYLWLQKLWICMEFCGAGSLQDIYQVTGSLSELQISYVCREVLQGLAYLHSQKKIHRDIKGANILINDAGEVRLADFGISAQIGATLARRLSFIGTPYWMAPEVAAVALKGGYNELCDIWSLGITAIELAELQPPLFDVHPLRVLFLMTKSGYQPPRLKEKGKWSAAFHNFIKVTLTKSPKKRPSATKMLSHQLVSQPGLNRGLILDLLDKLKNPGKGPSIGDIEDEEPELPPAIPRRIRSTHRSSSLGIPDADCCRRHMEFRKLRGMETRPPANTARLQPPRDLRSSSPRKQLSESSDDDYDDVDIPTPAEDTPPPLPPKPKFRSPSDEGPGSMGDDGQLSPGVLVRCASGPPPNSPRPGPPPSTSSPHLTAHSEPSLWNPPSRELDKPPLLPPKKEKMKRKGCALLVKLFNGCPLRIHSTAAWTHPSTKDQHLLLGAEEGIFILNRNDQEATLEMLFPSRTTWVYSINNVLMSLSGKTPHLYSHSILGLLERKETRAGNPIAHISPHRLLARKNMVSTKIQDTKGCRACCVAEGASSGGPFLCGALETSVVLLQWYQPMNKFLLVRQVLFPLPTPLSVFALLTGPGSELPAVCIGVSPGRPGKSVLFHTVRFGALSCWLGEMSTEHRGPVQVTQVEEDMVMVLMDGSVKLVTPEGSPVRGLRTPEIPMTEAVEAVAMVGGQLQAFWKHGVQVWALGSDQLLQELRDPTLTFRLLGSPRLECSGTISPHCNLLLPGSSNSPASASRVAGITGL
full-length human HPK1 (MAP4K1), sequence (Q92918 whole entry): as the sequence (Q92918 whole entry, looked up) above

Take `Cc1cc(Nc2ncc3c(n2)CN(c2cnc4c(c2C)NCCO4)CC3)cnc1CS(C)(=O)=O` [Example 21, 6-(methanesulfonylmethyl)-5-methyl-N-(7-{8-methyl-1H,2H,3H-pyrido[2,3-b][1,4]oxazin-7-yl}-5H,6H,7H,8H-pyrido[3,4-d]pyrimidin-2-yl)pyridin-3-amine]: the values for the half-inhibitory concentration (IC50) in assay [1] and in assay [2] (setting [3]) were less than 100 nM and 500 to 1000 nM, respectively.
In the same order, the values of `Cc1c(N2CCc3cnc(Nc4ccc(CS(=O)(=O)CC5(C)COC5)cc4)nc3C2)cnc2c1NCCO2` [Example 41, 7-{8-methyl-1H,2H,3H-pyrido[2,3-b][1,4]oxazin-7-yl}-N-(4-{[(3-methyloxetan-3-yl)methanesulfonyl]methyl}phenyl)-5H,6H,7H,8H-pyrido[3,4-d]pyrimidin-2-amine] are less than 100 nM and less than 500 nM.
For the compound `Cc1ccncc1N1CCc2cnc(Nc3cnc4c(c3)CN(C)CC4)nc2C1` [Example 118, N-(6-methyl-5,6,7,8-tetrahydro-1,6-naphthyridin-3-yl)-7-(4-methylpyridin-3-yl)-5,6,7,8-tetrahydropyrido[3,4-d]pyrimidin-2-amine], the values for the IC50 in assay [1] and in assay [2] (setting [3]) were less than 100 nM and greater than 1000 nM, respectively.
The corresponding values for `Cc1c(N2CCc3cnc(Nc4cc5n(n4)CC(=O)N(C)CC5)cc3C2)cnc2c1NCCO2` [Example 68, 6-methyl-2-[(6-{8-methyl-1H,2H,3H-pyrido[2,3-b][1,4]oxazin-7-yl}-5,6,7,8-tetrahydro-2,6-naphthyridin-3-yl)amino]-4H,5H,6H,7H,8H-pyrazolo[1,5-d][1,4]diazepin-7-one] are less than 100 nM and less than 500 nM.
The corresponding values for `COCCS(=O)(=O)Cc1ccc(Nc2ncc3c(n2)CN(c2cnc4c(c2C)NCCO4)CC3)cc1` [Example 135, N-{4-[(2-methoxyethanesulfonyl)methyl]phenyl}-7-{8-methyl-1H,2H,3H-pyrido[2,3-b][1,4]oxazin-7-yl}-5H,6H,7H,8H-pyrido[3,4-d]pyrimidin-2-amine] are less than 100 nM and less than 500 nM.
The corresponding values for `Cc1c(N2CCc3cnc(Nc4ccc(CC(=O)N5CC(F)C5)cc4)nc3C2)cnc2c1NCCO2` [Example 155, 1-(3-fluoroazetidin-1-yl)-2-{4-[(7-{8-methyl-1H,2H,3H-pyrido[2,3-b][1,4]oxazin-7-yl}-5H,6H,7H,8H-pyrido[3,4-d]pyrimidin-2-yl)amino]phenyl}ethan-1-one] are less than 100 nM and less than 500 nM.
In the case of `Cc1cc(Nc2ncc3c(n2)CN(c2cnc4c(c2C)NCCO4)CC3)ccc1NC(=O)CN1CCOCC1` [Example 48, N-{2-methyl-4-[(7-{8-methyl-1H,2H,3H-pyrido[2,3-b][1,4]oxazin-7-yl}-5H,6H,7H,8H-pyrido[3,4-d]pyrimidin-2-yl)amino]phenyl}-2-(morpholin-4-yl)acetamide], the IC50 in assay [1] was less than 100 nM; in assay [2] (setting [3]), less than 500 nM.
Take `Cc1c(N2CCc3cnc(Nc4ccc5c(c4)CNC5=O)nc3C2)cnc2c1NCCO2` [Example 85, 5-((7-(8-methyl-2,3-dihydro-1H-pyrido[2,3-b][1,4]oxazin-7-yl)-5,6,7,8-tetrahydropyrido[3,4-d]pyrimidin-2-yl)amino)isoindolin-1-one]: the IC50 is less than 100 nM in assay [1] and greater than 1000 nM in assay [2] (setting [3]).
In the same order, the values of `Cc1cc(Nc2ncc3c(n2)CN(c2cnc4c(c2C)NCCO4)CC3)ccc1C(=O)NC1CN(C)C1` [Example 35, 2-methyl-4-[(7-{8-methyl-1H,2H,3H-pyrido[2,3-b][1,4]oxazin-7-yl}-5H,6H,7H,8H-pyrido[3,4-d]pyrimidin-2-yl)amino]-N-(1-methylazetidin-3-yl)benzamide] are less than 100 nM and 500 to 1000 nM.
In the same order, the values of `Cc1c(N2CCc3cnc(Nc4ccc(CS(C)(=O)=O)cc4)nc3C2)cnc2c1NCCC2O` (stereo not shown) [Example 143, 7-(2-{[4-(methanesulfonylmethyl)phenyl]amino}-5H,6H,7H,8H-pyrido[3,4-d]pyrimidin-7-yl)-8-methyl-1,2,3,4-tetrahydro-1,5-naphthyridin-4-ol] are less than 100 nM and less than 500 nM.
As to `CS(=O)(=O)Cc1ccc(Nc2ncc3c(n2)CN(c2cnc4c(c2C2CC2)NCCO4)CC3)cc1` [Example 132, 7-{8-cyclopropyl-1H,2H,3H-pyrido[2,3-b][1,4]oxazin-7-yl}-N-[4-(methanesulfonylmethyl)phenyl]-5H,6H,7H,8H-pyrido[3,4-d]pyrimidin-2-amine], the results for the IC50 in assay [1] and in assay [2] (setting [3]) were less than 100 nM and less than 500 nM, respectively.
For `CCc1c(N2CCc3cnc(Nc4ccc(CS(C)(=O)=O)cc4)nc3C2)cnc2c1NCCO2` [Example 145, 7-{8-ethyl-1H,2H,3H-pyrido[2,3-b][1,4]oxazin-7-yl}-N-[4-(methanesulfonylmethyl)phenyl]-5H,6H,7H,8H-pyrido[3,4-d]pyrimidin-2-amine], the figures for the IC50 in assay [1] and in assay [2] (setting [3]) were less than 100 nM and less than 500 nM, respectively.
The corresponding values for `Cc1c(N2CCc3cnc(Nc4ccc(CS(C)(=O)=O)cc4)nc3C2)cnc2c1NCC1(CC1)O2` [Example 139, N-[4-(methanesulfonylmethyl)phenyl]-7-{8′-methyl-1′,2′-dihydrospiro[cyclopropane-1,3′-pyrido[2,3-b][1,4]oxazin]-7′-yl}-5H,6H,7H,8H-pyrido[3,4-d]pyrimidin-2-amine] are less than 100 nM and less than 500 nM.
For `Cc1c(N2CCc3cnc(Nc4ccc([C@H]5CCCS5(=O)=O)cc4)cc3C2)cnc2c1NCCO2` (single isomer, unassigned) [Example 169], the IC50 in assay [1] was less than 100 nM; in assay [2] (setting [3]), less than 500 nM.
Take `Cc1c(N2CCc3cnc(Nc4ccc(N5CCC(O)CC5)nc4)nc3C2)cnc2c1NCCO2` [Example 102, 1-(5-((7-(8-methyl-2,3-dihydro-1H-pyrido[2,3-b][1,4]oxazin-7-yl)-5,6,7,8-tetrahydropyrido[3,4-d]pyrimidin-2-yl)amino)pyridin-2-yl)piperidin-4-ol]: the IC50 in assay [1] was less than 100 nM; in assay [2] (read-out: HPK1 pSLP76 IC50; αCD3/αCD28 Dynabeads stimulated cells, pSLP76 (Ser376) detection), greater than 1000 nM.
For the compound `Cc1c(N2CCc3cnc(Nc4ccc(CS(C)(=O)=O)cc4)nc3C2)cnc2c(F)c[nH]c12` [Example 138, 7-{3-fluoro-7-methyl-1H-pyrrolo[3,2-b]pyridin-6-yl}-N-[4-(methanesulfonylmethyl)phenyl]-5H,6H,7H,8H-pyrido[3,4-d]pyrimidin-2-amine], the IC50 in assay [1] is less than 100 nM; in assay [2] (setting [3]), less than 500 nM.
Take `Cc1c(N2CCc3cnc(Nc4ccnc(C(C)(C)O)c4)nc3C2)cnc2c1NCCO2` [Example 67, 2-{4-[(7-{8-methyl-1H,2H,3H-pyrido[2,3-b][1,4]oxazin-7-yl}-5H,6H,7H,8H-pyrido[3,4-d]pyrimidin-2-yl)amino]pyridin-2-yl}propan-2-ol]: the IC50 in assay [1] was less than 100 nM; in assay [2] (setting [3]) it was 500 to 1000 nM.
Consider `Cc1c(N2CCc3cnc(Nc4ccc([C@@H]5CCCS5(=O)=O)cc4)cc3C2)cnc2c1NCCO2` (single isomer, unassigned) [Example 170], for which the results for the IC50 in assay [1] and in assay [2] (setting [3]) were less than 100 nM and less than 500 nM, respectively.
In the same order, the values of `Cc1c(N2CCc3cnc(Nc4ccc5c(c4)CN(CC(C)(C)O)C5)nc3C2)cnc2c1NCCO2` [Example 30, 2-methyl-1-{5-[(7-{8-methyl-1H,2H,3H-pyrido[2,3-b][1,4]oxazin-7-yl}-5H,6H,7H,8H-pyrido[3,4-d]pyrimidin-2-yl)amino]-2,3-dihydro-1H-isoindol-2-yl}propan-2-ol] are less than 100 nM and less than 500 nM.
In the same order, the values of `Cc1c(N2CCc3cnc(Nc4ccc(CS(C)(=O)=O)cc4)nc3C2)cnc2c1NCCO2` [Example 69, N-[4-(methanesulfonylmethyl)phenyl]-7-{8-methyl-1H,2H,3H-pyrido[2,3-b][1,4]oxazin-7-yl}-5H,6H,7H,8H-pyrido[3,4-d]pyrimidin-2-amine] are less than 100 nM and less than 500 nM.
